Reference: patent US7598253B2, “Reverse-turn mimetics and methods relating thereto” (Myriad Genetics, Inc., priority 1995, dated 2009)
Where “and” joins values, the source holds several entries; their conditions need not be identical. Equal entries are not always repeated. Where two headings read alike, the source gives them in different places.

Legend:
μ opiate receptor = μ opiate receptor (Cavia porcellus, UniProt A0ACM8Q262); assay: biochemical; type: binding, guinea pig
[1] = biological target: opioid receptor (non-selective); assay: Opiate (non-selective) binding, [3H]naloxone; conditions: [3H]naloxone (1 nM), rat cerebral cortex membranes
δ opiate receptor = δ opiate receptor (Cavia porcellus, UniProt A0A286XTF2); assay: Opiate (δ) binding, [3H]DPDPE competitive radioligand binding; set-up: species or system guinea pig
Chain of δ opiate receptor (A0A286XTF2 1-366): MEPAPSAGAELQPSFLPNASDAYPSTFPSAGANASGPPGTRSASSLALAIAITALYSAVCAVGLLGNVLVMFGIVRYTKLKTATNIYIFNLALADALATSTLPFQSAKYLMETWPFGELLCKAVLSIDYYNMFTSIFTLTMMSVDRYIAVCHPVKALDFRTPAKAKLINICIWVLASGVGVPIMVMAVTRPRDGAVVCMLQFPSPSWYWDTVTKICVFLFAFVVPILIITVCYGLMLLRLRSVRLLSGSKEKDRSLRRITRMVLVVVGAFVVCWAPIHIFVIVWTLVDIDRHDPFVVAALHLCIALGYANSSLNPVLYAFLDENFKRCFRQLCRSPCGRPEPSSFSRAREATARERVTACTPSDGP

male ICR mice = assay: In vivo mouse tail flick assay (radiant heat); conditions: for % Prolong.: 1 minute post-treatment vs 0 time; for tail flick response time, 1 Min. (single animal) / tail flick response time, 1 Min. (Avg.): 1 minute post-treatment; for tail flick response time, 1 Min. (single animal): cut-off 15 seconds; for tail flick response time, 1 Min. (Avg.) / tail flick response time, 0 Time (Avg.): group mean; for tail flick response time, 0 Time (single animal) / tail flick response time, 0 Time (Avg.): pre-treatment
[2] = reference compounds, [3H]DPDPE bound (2 nM)
[3] = read-out: inhibition of radioligand binding
[4] = 10 μg/5 μl ICV, listed as Test Compound
[5] = 30 μg/5 μl ICV, listed as Test Compound

Chain of μ opiate receptor (A0ACM8Q262 1-400): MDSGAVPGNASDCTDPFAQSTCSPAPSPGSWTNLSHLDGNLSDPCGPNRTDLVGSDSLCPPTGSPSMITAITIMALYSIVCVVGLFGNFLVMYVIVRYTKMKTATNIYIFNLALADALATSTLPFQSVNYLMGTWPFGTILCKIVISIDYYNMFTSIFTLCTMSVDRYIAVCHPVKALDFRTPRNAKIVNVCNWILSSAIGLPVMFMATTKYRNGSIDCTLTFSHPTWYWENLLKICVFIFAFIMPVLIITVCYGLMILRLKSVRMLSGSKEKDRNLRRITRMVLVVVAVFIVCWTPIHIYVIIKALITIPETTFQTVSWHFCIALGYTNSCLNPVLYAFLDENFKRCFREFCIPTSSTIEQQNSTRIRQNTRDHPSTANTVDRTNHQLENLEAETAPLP

In the case of `Oc1ccc2c3c1O[C@H]1c4[nH]c5c(c4C[C@@]4(O)[C@@H](C2)N(CC2CC2)CC[C@]314)C[C@@]1(O)[C@H]2Cc3ccc(O)c4c3[C@@]1(CCN2CC1CC1)[C@H]5O4` [Norbinaltorphimine], the “Hill Coefficient” value (μ opiate receptor) is reported as 1.13, the IC50 (μ opiate receptor) is reported as 280 nM and the Ki (μ opiate receptor) is reported as 26 nM.
Work on `CCCCCN1C[C@@H]2N(C(=O)OCCc3ccc(O)cc3)CCC(=O)N2[C@@H](CCc2ccccc2)C1=O` [Compound 30] yielded an IC50 [1] of 27 nM.
With `C[C@@H](NC(=O)[C@@H](N)Cc1ccc(O)cc1)C(=O)NCC(=O)N(C)[C@@H](Cc1ccccc1)C(=O)NCCO` [[^3H]DAMGO] the Kd (μ opiate receptor; read-out: Kd of radioligand) was 0.27 nM.
With (D-pen^3, D-pen^5) enkephalin [DPDPE] the “Hill Coefficient” value (δ opiate receptor) was 0.86 and the “Hill Coefficient” value (μ opiate receptor) was 1.32.
With `Oc1ccc2c3c1O[C@H]1c4[nH]c5ccccc5c4C[C@@]4(O)[C@@H](C2)N(CC2CC2)CC[C@]314` [Naltrindole] the “Hill Coefficient” value (δ opiate receptor; [2]) was 0.53, the “Hill Coefficient” value (μ opiate receptor) was 0.98 and the IC50 (μ opiate receptor) was 27 nM. It also gave a Ki (μ opiate receptor) of 2.5 nM.
With `C[C@@H](NC(=O)[C@@H](N)Cc1ccc(O)cc1)C(=O)NCC(=O)N(C)[C@@H](Cc1ccccc1)C(=O)NCCO` [DAMGO, (D-Ala^2, N-methyl-phe^4, gly-ol^5)-enkephalin] the IC50 (δ opiate receptor) was 4800 nM, the Ki (δ opiate receptor) was 1200 nM and the “Hill Coefficient” value (δ opiate receptor; [2]) was 1.08. For the same compound, the “Hill Coefficient” value (μ opiate receptor) was 0.92, the IC50 (μ opiate receptor) was 6.5 nM and the Ki (μ opiate receptor) was 0.59 nM.
With `CN1CC[C@]23c4c5ccc(O)c4O[C@H]2[C@@H](O)C=C[C@H]3[C@H]1C5` [Morphine, reference compound] the “% Prolong.” value (male ICR mice; 10 μg/5 μl ICV) was 100%, the “tail flick response time, 1 Min. (single animal)” value (male ICR mice; 10 μg/5 μl ICV) was over 15 s and the “tail flick response time, 1 Min. (Avg.)” value (male ICR mice; 10 μg/5 μl ICV) was “Avg. > 15 seconds”. The “tail flick response time, 0 Time (single animal)” value (male ICR mice; 10 μg/5 μl ICV) was 7.5 s and 6.3 s and 7.2 s and 6.8 s and the “tail flick response time, 0 Time (Avg.)” value (male ICR mice; 10 μg/5 μl ICV) was “Avg. = 7.0 seconds”.
`O=C1CN2C(=O)CCN(CCc3ccc(O)cc3)C2CN1CCc1ccccc1` (centres unmarked) [Compound 5] showed an IC50 (δ opiate receptor; read-out: IC50) of 6900 ± 1200 nM, a Ki (δ opiate receptor; read-out: Ki) of 1700 ± 300 nM and an inhibition at 10 µM (δ opiate receptor; [3]) of 60%. For the same compound, the “% Prolong.” value (male ICR mice; 10 μg/5 μl ICV) was 6%, the “tail flick response time, 1 Min. (single animal)” value (male ICR mice; [4]) was 7.5 seconds (2×) and 6.7 seconds and 6.8 seconds and the “tail flick response time, 1 Min. (Avg.)” value (male ICR mice; 10 μg/5 μl ICV) was “Avg. 7.1 seconds”. For the same compound, the “tail flick response time, 0 Time (Avg.)” value (male ICR mice; 10 μg/5 μl ICV) was “Avg. = 6.7 seconds”, the “tail flick response time, 0 Time (single animal)” value (male ICR mice; [4]) was 6.5 s and 7.2 s and 6.9 s and 6.2 s and the “% Prolong.” value (male ICR mice; 30 μg/5 μl ICV) was 63%. The “tail flick response time, 1 Min. (single animal)” value (male ICR mice; [5]) was >15 seconds (2×) and 7.2 seconds and 6.3 seconds, the “tail flick response time, 1 Min. (Avg.)” value (male ICR mice; 30 μg/5 μl ICV) was “Avg. > 15 seconds” and the “tail flick response time, 0 Time (Avg.)” value (male ICR mice; 30 μg/5 μl ICV) was “Avg. = 6.7 seconds”. For the same compound, the “tail flick response time, 0 Time (single animal)” value (male ICR mice; [5]) was 6.5 s and 6.7 s and 7.2 s and 6.3 s, the “% Prolong.” value (male ICR mice; 100 μg/5 μl ICV) was 100% and the “tail flick response time, 1 Min. (single animal)” value (male ICR mice; 100 μg/5 μl ICV) was over 15 s. For the same compound, the “tail flick response time, 1 Min. (Avg.)” value (male ICR mice; 100 μg/5 μl ICV) was “Avg. > 15 seconds”, the “tail flick response time, 0 Time (Avg.)” value (male ICR mice; 100 μg/5 μl ICV) was “Avg. = 6.5 seconds” and the “tail flick response time, 0 Time (single animal)” value (male ICR mice; 100 μg/5 μl ICV, listed as Test Compound) was 6.5 seconds (2×) and 6.3 seconds and 6.8 seconds. For the same compound, the “analgesic potency relative to morphine” value (male ICR mice; ICV, tail flick) was 10%-15%, the IC50 (μ opiate receptor) was 5400 ± 700 nM and the Ki (μ opiate receptor) was 640 ± 80 nM. For the same compound, the inhibition at 10 µM (μ opiate receptor; [3]) was 64%.
